According to US8999940B2 (Ipsen Pharma S.A.S., priority 2008, dated 2015):

Columns and labels:
[1] = target: T1, human recombinant GIP receptor (Homo sapiens, UniProt P48546); assay: In vitro hGIP receptor binding assay
T1 construct: expressed in transfected cells; host or cells: CHO-K1 clonal cells (membrane preparation)
T1 sequence (P48546 22-466): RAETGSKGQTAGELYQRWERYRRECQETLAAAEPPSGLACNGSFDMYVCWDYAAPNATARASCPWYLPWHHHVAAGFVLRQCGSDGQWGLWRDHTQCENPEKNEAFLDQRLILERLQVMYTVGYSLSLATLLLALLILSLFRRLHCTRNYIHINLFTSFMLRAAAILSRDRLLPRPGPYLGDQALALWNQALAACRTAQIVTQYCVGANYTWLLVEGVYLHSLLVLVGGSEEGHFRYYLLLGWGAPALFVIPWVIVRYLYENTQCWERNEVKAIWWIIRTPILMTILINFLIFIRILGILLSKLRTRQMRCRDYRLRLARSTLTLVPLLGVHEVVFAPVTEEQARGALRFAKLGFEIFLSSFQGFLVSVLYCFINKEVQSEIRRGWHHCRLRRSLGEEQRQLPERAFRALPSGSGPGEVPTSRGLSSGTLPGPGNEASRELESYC
Method: A. In Vitro hGIP Receptor Binding Assay […] The incubations were terminated by rapid filtration through GF/C filters (pre-soaked in 0.5% polyethylenimine) using a Brandel filtration manifold. Each tube and filter were then washed three times with 5-ml aliquots of ice-cold buffer.

[2] = Human plasma half-life assay; assay type: in vitro ADME; settings: 37° C., LC-MS, read-out: Human Plasma T½ (converted)
Method: (§1) B. Human and Rat Plasma Half-Life Assay
(§2) 50 μl was removed at various times, like at 0, 1, 2, 3, 4, 8, 24, 32, 48, 56, 72 hours, mixed with 5 μl formic acid and 150 μL acetonitrile in a microcentrifuge tube, vertexed, and centrifuged for 10 minutes at 10 K rpm. The supernatant was transferred to an injection vial and analyzed by LC-MS. The LC-MS system consisted of an API4000 mass spectrometer with an ESI probe. Positive ion mode and full scan detection were used. HPLC separation was carried out on a Luna 3μ. C8 (2), 2×30 mm column with a gradient from 90% A to 90% B in 10 minutes at a flow rate of 0.3 ml/min. Buffer A was 1% formic acid in water and buffer B was 1% formic acid acetonitrile.

[3] = Rat plasma half-life assay; assay type: in vitro ADME; settings: 37° C., LC-MS, read-out: Rat Plasma T½ (converted)
Method: as §1, §2

Row | SMILES | Ki [1] | half-life at 0.1 mg/ml [2] | half-life at 0.1 mg/ml [3]
1 | CCCC[C@H](NC(=O)[C@H](C)NC(=O)[C@@H](NC(=O)C1(NC(=O)[C@H](Cc2ccc(O)cc2)NC(=O)[C@H](CC(=O)O)NC(=O)[C@H](CO)NC(=O)[C@@H](NC(=O)[C@H](Cc2ccccc2)NC(=O)[C@@H](NC(=O)CNC(=O)[C@H](CCC(=O)O)NC(=O)C(C)(C)NC(=O)[C@@H](N)CCc2ccc(O)cc2)[C@@H](C)O)[C@@H](C)CC)CCCC1)[C@@H](C)CC)C(=O)N[C@@H](CC(=O)O)C(=O)N[C@@H](CCCCN)C(=O)N[C@H](C(=O)N[C@@H](Cc1c[nH]cn1)C(=O)N[C@@H](CCC(N)=O)C(=O)N[C@@H](CCC(N)=O)C(=O)N[C@@H](CC(=O)O)C(=O)N[C@@H](Cc1ccccc1)C(=O)N[C@H](C(=O)N[C@@H](CC(N)=O)C(=O)N[C@@H](Cc1c[nH]c2ccccc12)C(=O)N[C@@H](CC(C)C)C(=O)N[C@@H](CC(C)C)C(=O)N[C@@H](C)C(=O)N[C@@H](CCC(N)=O)C(=O)N[C@@H](CCCCN)C(=O)NCC(=O)N[C@@H](CCCCN)C(=O)N[C@@H](CCCCN)C(=O)N[C@@H](CC(N)=O)C(=O)N[C@@H](CC(=O)O)C(=O)N[C@@H](Cc1c[nH]c2ccccc12)C(=O)N[C@@H](CCCCN)C(=O)N[C@@H](Cc1c[nH]cn1)C(=O)N[C@@H](CC(N)=O)C(=O)N[C@H](C(=O)N[C@H](C(=O)N[C@@H](CCC(N)=O)C(=O)O)[C@@H](C)O)[C@@H](C)CC)C(C)C)[C@@H](C)CC [Example 19, (hTyr^1, Aib^2, A5c^11, Nle^14)hGIP(1-42)-OH] | 77.3 nM | > 72 h | 15.2 h
2 | CCCC[C@H](NC(=O)[C@H](C)NC(=O)[C@@H](NC(=O)C1(NC(=O)[C@H](Cc2ccc(O)cc2)NC(=O)[C@H](CC(=O)O)NC(=O)[C@H](CO)NC(=O)[C@@H](NC(=O)[C@H](Cc2ccccc2)NC(=O)[C@@H](NC(=O)CNC(=O)[C@H](CCC(=O)O)NC(=O)C(C)(C)NC(=O)[C@@H](N)Cc2ccc(Cl)cc2)[C@@H](C)O)[C@@H](C)CC)CCCC1)[C@@H](C)CC)C(=O)N[C@@H](CC(=O)O)C(=O)N[C@@H](CCCCN)C(=O)N[C@H](C(=O)N[C@@H](Cc1c[nH]cn1)C(=O)N[C@@H](CCC(N)=O)C(=O)N[C@@H](CCC(N)=O)C(=O)N[C@@H](CC(=O)O)C(=O)N[C@@H](Cc1ccccc1)C(=O)N[C@H](C(=O)N[C@@H](CC(N)=O)C(=O)N[C@@H](Cc1c[nH]c2ccccc12)C(=O)N[C@@H](CC(C)C)C(=O)N[C@@H](CC(C)C)C(=O)N[C@@H](C)C(=O)N[C@@H](CCC(N)=O)C(=O)N[C@@H](CCCCN)C(=O)NCC(=O)N[C@@H](CCCCN)C(=O)N[C@@H](CCCCN)C(=O)N[C@@H](CC(N)=O)C(=O)N[C@@H](CC(=O)O)C(=O)N[C@@H](Cc1c[nH]c2ccccc12)C(=O)N[C@@H](CCCCN)C(=O)N[C@@H](Cc1c[nH]cn1)C(=O)N[C@@H](CC(N)=O)C(=O)N[C@H](C(=O)N[C@H](C(=O)N[C@@H](CCC(N)=O)C(=O)O)[C@@H](C)O)[C@@H](C)CC)C(C)C)[C@@H](C)CC [Example 20, (Cpa^1, Aib^2, A5c^11, Nle^14)hGIP(1-42)-OH] | 9.4 nM | > 74 h | 24.3 h
3 | CCCC[C@H](NC(=O)[C@H](C)NC(=O)[C@@H](NC(=O)C1(NC(=O)[C@H](Cc2ccc(O)cc2)NC(=O)[C@H](CC(=O)O)NC(=O)[C@H](CO)NC(=O)[C@@H](NC(=O)[C@H](Cc2ccccc2)NC(=O)[C@@H](NC(=O)CNC(=O)[C@H](CCC(=O)O)NC(=O)C(C)(C)NC(=O)[C@@H](N)Cc2ccc(CN)cc2)[C@@H](C)O)[C@@H](C)CC)CCCC1)[C@@H](C)CC)C(=O)N[C@@H](CC(=O)O)C(=O)N[C@@H](CCCCN)C(=O)N[C@H](C(=O)N[C@@H](Cc1c[nH]cn1)C(=O)N[C@@H](CCC(N)=O)C(=O)N[C@@H](CCC(N)=O)C(=O)N[C@@H](CC(=O)O)C(=O)N[C@@H](Cc1ccccc1)C(=O)N[C@H](C(=O)N[C@@H](CC(N)=O)C(=O)N[C@@H](Cc1c[nH]c2ccccc12)C(=O)N[C@@H](CC(C)C)C(=O)N[C@@H](CC(C)C)C(=O)N[C@@H](C)C(=O)N[C@@H](CCC(N)=O)C(=O)N[C@@H](CCCCN)C(=O)NCC(=O)N[C@@H](CCCCN)C(=O)N[C@@H](CCCCN)C(=O)N[C@@H](CC(N)=O)C(=O)N[C@@H](CC(=O)O)C(=O)N[C@@H](Cc1c[nH]c2ccccc12)C(=O)N[C@@H](CCCCN)C(=O)N[C@@H](Cc1c[nH]cn1)C(=O)N[C@@H](CC(N)=O)C(=O)N[C@H](C(=O)N[C@H](C(=O)N[C@@H](CCC(N)=O)C(=O)O)[C@@H](C)O)[C@@H](C)CC)C(C)C)[C@@H](C)CC [Example 21, (4NH2CH2-Phe^1, Aib^2, A5c^11, Nle^14)hGIP(1-42)-OH] | 95 nM | > 74 h | 6 h
4 | CCCC[C@H](NC(=O)[C@H](C)NC(=O)[C@@H](NC(=O)C1(NC(=O)[C@H](Cc2ccc(O)cc2)NC(=O)[C@H](CC(=O)O)NC(=O)[C@H](CO)NC(=O)[C@@H](NC(=O)[C@H](Cc2ccccc2)NC(=O)[C@@H](NC(=O)CNC(=O)[C@H](CCC(=O)O)NC(=O)C(C)(C)NC(=O)[C@@H](N)Cc2cc(F)c(F)c(F)c2)[C@@H](C)O)[C@@H](C)CC)CCCC1)[C@@H](C)CC)C(=O)N[C@@H](CC(=O)O)C(=O)N[C@@H](CCCCN)C(=O)N[C@H](C(=O)N[C@@H](Cc1c[nH]cn1)C(=O)N[C@@H](CCC(N)=O)C(=O)N[C@@H](CCC(N)=O)C(=O)N[C@@H](CC(=O)O)C(=O)N[C@@H](Cc1ccccc1)C(=O)N[C@H](C(=O)N[C@@H](CC(N)=O)C(=O)N[C@@H](Cc1c[nH]c2ccccc12)C(=O)N[C@@H](CC(C)C)C(=O)N[C@@H](CC(C)C)C(=O)N[C@@H](C)C(=O)N[C@@H](CCC(N)=O)C(=O)N[C@@H](CCCCN)C(=O)NCC(=O)N[C@@H](CCCCN)C(=O)N[C@@H](CCCCN)C(=O)N[C@@H](CC(N)=O)C(=O)N[C@@H](CC(=O)O)C(=O)N[C@@H](Cc1c[nH]c2ccccc12)C(=O)N[C@@H](CCCCN)C(=O)N[C@@H](Cc1c[nH]cn1)C(=O)N[C@@H](CC(N)=O)C(=O)N[C@H](C(=O)N[C@H](C(=O)N[C@@H](CCC(N)=O)C(=O)O)[C@@H](C)O)[C@@H](C)CC)C(C)C)[C@@H](C)CC [Example 22, (3,4,5F-Phe^1, Aib^2, A5c^11, Nle^14)hGIP(1-42)-OH] | 31.1 nM | > 74 h | 69.3 h
5 | CCCC[C@H](NC(=O)[C@H](C)NC(=O)[C@@H](NC(=O)C1(NC(=O)[C@H](Cc2ccc(O)cc2)NC(=O)[C@H](CC(=O)O)NC(=O)[C@H](CO)NC(=O)[C@@H](NC(=O)[C@H](Cc2ccccc2)NC(=O)[C@@H](NC(=O)CNC(=O)[C@H](CCC(=O)O)NC(=O)C(C)(C)NC(=O)[C@@H](N)Cc2cccc(F)c2)[C@@H](C)O)[C@@H](C)CC)CCCC1)[C@@H](C)CC)C(=O)N[C@@H](CC(=O)O)C(=O)N[C@@H](CCCCN)C(=O)N[C@H](C(=O)N[C@@H](Cc1c[nH]cn1)C(=O)N[C@@H](CCC(N)=O)C(=O)N[C@@H](CCC(N)=O)C(=O)N[C@@H](CC(=O)O)C(=O)N[C@@H](Cc1ccccc1)C(=O)N[C@H](C(=O)N[C@@H](CC(N)=O)C(=O)N[C@@H](Cc1c[nH]c2ccccc12)C(=O)N[C@@H](CC(C)C)C(=O)N[C@@H](CC(C)C)C(=O)N[C@@H](C)C(=O)N[C@@H](CCC(N)=O)C(=O)N[C@@H](CCCCN)C(=O)NCC(=O)N[C@@H](CCCCN)C(=O)N[C@@H](CCCCN)C(=O)N[C@@H](CC(N)=O)C(=O)N[C@@H](CC(=O)O)C(=O)N[C@@H](Cc1c[nH]c2ccccc12)C(=O)N[C@@H](CCCCN)C(=O)N[C@@H](Cc1c[nH]cn1)C(=O)N[C@@H](CC(N)=O)C(=O)N[C@H](C(=O)N[C@H](C(=O)N[C@@H](CCC(N)=O)C(=O)O)[C@@H](C)O)[C@@H](C)CC)C(C)C)[C@@H](C)CC [Example 23, (3F-Phe^1, Aib^2, A5c^11, Nle^14)hGIP(1-42)-OH] | 2.7 nM | > 74 h | > 74 h
